Measured values reported in publication PMC12195740, “Discovery of Novel Imidazothiazole-Based Hydroxamic Acid Derivatives as Potent Indoleamine 2,3-Dioxygenase 1 and Histone Deacetylase 6 Dual Inhibitors” (Molecules, 2025).

Tested on: HCT-116 cells
Assay: Cell cycle analysis (PI, flow cytometry)
Assay type: cell-based
Conditions: 24 h, control 7.77%
Method: To assess the impact of compound 10e on the cell cycle, HCT-116 cells were treated with different concentrations of compound 10e (5 μM, 10 μM, and 20 μM) for 24 h, then stained with PI, and analyzed using flow cytometry.
Cell Bank at the Chinese Academy of Sciences. Hct-116, SW480, MDA-MB-231 and MCF-7 cell […]
FBS. DMEM and FBS were obtained from Gibco-Thermo (BRL Co. Ltd., USA). The plates were incubated at 37 °C in a humidified atmosphere of 5% CO2/95% air overnight. The cells were then […]
another 48 h. The cells were stained with 10 μl of MTT at incubator for approximately 4 h. The medium was discarded and replaced by […] DMSO. The O.D. value was read at 570/630 nm with a spectrophotometer.
Section S 1.4 Molecular docking
Molecular docking was carried out in Sybyl-X 2.1 on a Windows workstation. The crystal structure of IDO1 protein with inhibitor was retrieved from the RCSB Protein Data Bank (IDO1:
4PK5, HDAC6: 6THV). Firstly, the 3D structure of the selected compound was built with Sybyl-X 2.1 sketch followed by energy minimization with the MMFF94 force field and Gasteiger-Marsili charges. The Powell’s method was used to optimize the geometry with a distance dependent dielectric constant and a termination energy gradient of 0.005 kcal/mol. […]
with 75% cold ethanol at 4 °C overnight. […] The samples were measured using flow cytometry and analyzed by Flowjo software. […]
Total cell lysates from cultured HCT-116 cells after treatment with compound 10e as mentioned earlier were obtained by lysing the cells in ice-cold RIPA buffer with protease and phosphatase inhibitor and stored at -20°C for future use. The protein concentrations were quantified by the Bradford method (Bio-Rad) using a Multimode Varioscan instrument (Thermo Fischer Scientific).
Equal amounts of protein per lane were applied to 12% SDS polyacrylamide gel for electrophoresis and transferred to a polyvinylidene difluoride (PVDF) membrane (Amersham Biosciences). […] Membranes were washed with TBST three times for 15 min and the protein bands were detected with chemiluminescence reagent (Thermo Fischer Scientific). […]

## O=C(CCCCCCNc1ccc(NC(=O)c2cnc3scc(-c4ccc(Br)cc4)n23)cc1)NO [Compound 10e, 3-(4-Bromophenyl)-N-{4-[(7-(hydroxyamino)-7-oxoheptyl)amino]phenyl}imidazo[2,1-b]thiazole-5-carboxamide]
HCT-116, 5 μM
  cell population in G2/M phase: 17.39%
HCT-116, 10 μM
  cell population in G2/M phase: 31.89%
HCT-116, 20 μM
  cell population in G2/M phase: 47.18%
